Data on 13 compounds can be found in paper PMC7766159, “Novel Psychoactive Phenethylamines: Impact on Genetic Material” (International Journal of Molecular Sciences, 2020).

Data set [1] has as its system HepG2. The arrangement: method as in PMID 28645576. As to conditions: 24 h treatment; cited from earlier work.
Data set [2] concerns TK6 cells. The data set is described as follows: Cytostasis analysis (Relative Population Doubling, Guava ViaCount). The class given is cell-based, human. The conditions noted are these: for Relative Population Doubling (RPD): 26 h treatment, vs untreated control C (-) = 100%, mean ± SEM; for concentrations that caused an RPD value well above 55 ± 5% (OECD threshold): 26 h, tested 6.25-75 µM. From the text: In addition, to make the genotoxicity test reliable, it is necessary to check the cellular proliferation in order to verify that a sufficient number of cells has undergone mitosis and so transmitted the genetic damage suffered to the daughter cells. For this purpose, the OECD recommends the measurement of the Relative Population Doubling (RPD) to estimate the cytostasis and, analogously to the cytotoxicity, establishes a threshold at most equal to 55 ± 5% [45].
(§1) In all experiments, aliquots of 2 × 10^5 of TK6 cells were treated with increasing concentrations of phenethylamines from 0 to 75 µM and incubated for 26 h, corresponding to two replication cycles for the analysis of cytotoxicity, cytostasis, apoptosis, and genotoxicity, while for the analysis of ROS, 1 h of treatment was performed.
In parallel, always using the Guava ViaCount Reagent, the number of cells seeded at time 0 and that measured at the end of the phenethylamines treatment time was used to check the correct replication in the control cultures and to compare it to that measured in the treated cultures by the RPD, calculated as the following formula [46, 47]: RPD= (No. of Population doublings in treated cultures)/(No. of Population doublings in control cultures) × 100
Similarly to cytotoxicity, the cytostasis was checked in order to verify that cell proliferation respected the threshold established by the OECD guideline (55 ± 5%).

In data set [3] the test system is TK6 cells. The data set is described as follows: Genotoxicity analysis (micronucleus frequency, automated flow cytometric protocol). Format: cell-based, human. As to conditions: for MNi frequency fold increase: 26 h, vs C (-); for relative genotoxic potency: comparison within the series. The procedure:
as §1
The analysis of the MNi frequency was performed using a new automated flow cytometric protocol that we recently developed in our laboratory. The detailed protocol is described in the paper by Lenzi et al. and was used in our previous publication to analyze the genotoxicity of some synthetic cannabinoids.
Briefly, at the end of the phenethylamines treatment time, 7 × 10^5 cells were collected and incubated with 7-AAD at RT for 5 min, after which the cells were lysed and stained with SYTOX Green for 1 h. After, a total of 10,000 nuclei, derived from viable and proliferating cells (7-AAD negative), and the corresponding number of micronuclei were acquired. The discrimination between nuclei and MNi occurs on the basis of the different size analyzed by Forward Scatter (FSC), and the different intensity of green fluorescence (SYTOX Green).
The MNi frequencies (number of MNi/10,000 nuclei) recorded in treated cultures were normalized on those recorded in the untreated control cultures, accounted equal to 1 and expressed as MNi frequency fold increase.
As recommended by OECD guideline 487, we used MMC and VINB as positive controls, being known clastogen and aneuploidogen agents, respectively.

Data set [4] concerns TK6 cells. The data set is described as follows: Cytotoxicity analysis (Guava ViaCount, cell viability). The class given is cell-based, human. As to conditions: Guava ViaCount assay, 26 h. Here is the method:
In the preliminary phase of the research, we determined the concentrations to be used in the subsequent experiments aimed at evaluating the potential genotoxicity of different molecules under study. First, we assessed the 2C-H, 2C-I, 2C-B, 25B-NBOMe, and MDMA-induced cytotoxicity after 26 h treatment (time required by TK6 cells to carry out two cell cycles) by measuring the percentage of live cells at the different concentrations tested (6.25, 12.5, 25, 35, 50, 75 µM). This value was normalized on the one obtained in the untreated control cultures C (-) equal to 100% in order to check whether the cellular viability complied with the OECD threshold (equal to 55 ± 5%).
as §1
Cytotoxicity assay was performed as previously described by Lenzi et al.. Briefly, at the end of the phenethylamines treatment time, 1.5 × 10^5 cells were stained with Guava ViaCount Reagent. The reagent contains the Propidium Iodide (PI) that allows us to discriminate viable from dead cells based on different permeability to DNA-binding dye.
180 μL of reagent were added to 20 μL of cell suspension and incubated for 5 min at room temperature (RT). After, a total of 1000 events were acquired and analyzed by Guava ViaCount software.
The results obtained from the samples treated with different concentrations of phenethylamines were normalized on those obtained from the untreated control cultures, accounted equal to 100%.

The test system of data set [5] is TK6 cells. The data set is described as follows: Apoptosis analysis (Guava Nexin Assay). As to conditions: 26 h. The class given is cell-based, human. Here is the method:
as §1
The percentage of apoptotic cells was evaluated by the Guava Nexin Assay according to the procedure by Lenzi et al..
Briefly, at the end of the phenethylamines treatment time, the percentage of apoptotic cells was assessed using the Guava Nexin Reagent. The reagent contains the 7-aminoactinomycin D (7-AAD), a cell non-permeant dye, that allows discrimination between live and dead cells and the Annexin-V-PE that allows the identification of apoptotic cells by binding the phosphatidylserine on the cell surface.
100 μL of reagent were added to 100 μL of cell suspension (~1 × 10^5 cells) and incubated for 20 min at RT. After, a total of 2000 events were acquired and analyzed by Guava Nexin software.
The apoptotic cell percentages recorded in the cultures treated with phenethylamines different concentrations were normalized on those recorded in the untreated control cultures, accounted equal to 1 and expressed as apoptotic fold increase.

In data set [6] the test system is SH-SY5Y. The arrangement: method as in PMID 28067045, PMID 30925718, PMID 28527032. The conditions noted are these: 2–24 h treatment, concentration-dependent (1000–3000 μM); cited from earlier work.
The subject of data set [7] is HepG2 cells. Details: method as in PMID 31068823. As to conditions: cited from earlier work.
Data set [8] concerns TK6 cells. Details: method as in PMID 27637481. The conditions noted are these: CYP1A1, 1B1 and 1A2 not expressed; cited from earlier work.
Setting [9] is: both tested concentrations, 6.25 µM and 12.5 µM.
Setting [10] is: vs untreated control C (-) equal to 1, tested concentrations.

On to `CNC(C)C(=O)c1ccc(C)cc1` (stereo not shown) [mephedrone], for which the “concentration that increased O2•− levels” value in data set [1] is 1 mM.

On to `COc1cc(CCN)c(OC)cc1Br` [2C-B, 2,5-dimethoxy-4-bromophenethylamine], for which the “Relative Population Doubling (RPD)” value is on record as 95.9% ± 0.7 in data set [2] (6.25 µM); 93.1% ± 2.1 in data set [2] (12.5 µM); 69.7% ± 1.6 in data set [2] (25 µM); 63.1% ± 1.6 in data set [2] (35 µM); 10.0% ± 1.8 in data set [2] (50 µM); 0.0% in data set [2] (75 µM). Further, the “concentrations that caused an RPD value well above 55 ± 5% (OECD threshold)” value in data set [2] is recorded as “up to 35 µM”. In data set [3] (setting [9]), the “MNi frequency fold increase” value is “increased at both the tested concentrations”. Further, the relative genotoxic potency entry in data set [3] is “stronger genotoxic agents than 2C-I and 2C-H”. Further, the “concentration up to which no cytotoxicity and cytostasis was induced” value in data set [4] is recorded as “up to 35 µM”. Besides, the apoptosis fold increase result in data set [5] (25 µM and 35 µM, vs C (-)) is reported as “statistically significant increase”.

In the case of `COc1cc(CCNCc2ccccc2OC)c(OC)cc1Br` [25B-NBOMe, 4-bromo-2,5-dimethoxy-N-[(2-methoxyphenyl)methyl]-benzeneethanamine], the “Relative Population Doubling (RPD)” value in data set [2] (6.25 µM) was 86.4% ± 1.3; in data set [2] (12.5 µM), 81.2% ± 2.0; in data set [2] (25 µM), 50.0% ± 0.8; in data set [2] (35 µM), 1.0% ± 0.2; in data set [2] (50 µM) it was 0.0%; in data set [2] (75 µM), 0.0%. Besides, the “concentrations that caused an RPD value well above 55 ± 5% (OECD threshold)” value in data set [2] is reported as “up to 12.5 µM”. For the same compound, the “MNi frequency fold increase” value in data set [3] (setting [9]) is reported as “increased at both the tested concentrations”. The relative genotoxic potency result in data set [3] is “stronger genotoxic agents than 2C-I and 2C-H”. Moreover, the “concentration up to which no cytotoxicity and cytostasis was induced” value in data set [4] is “up to 12.5 µM”. Also, the apoptosis fold increase entry in data set [5] (setting [10]) is reported as “never reached a doubling”.

Regarding `CCCC(C(=O)c1ccc2ccccc2c1)N1CCCC1` (stereo not shown) [naphyrone], in data set [1], the “concentration that increased O2•− levels” value was 0.2 mM.

Take `CCCC(C(=O)c1ccccc1)N1CCCC1` (stereo not shown) [αPVP]: the superoxide levels entry in data set [6] is “increase in superoxide levels”.

`CC(N)Cc1ccc(F)cc1` (stereo not shown) [4-fluoroamphetamine, 4-Fluoroamphetamine]: the mitochondrial superoxide levels entry in data set [7] was “increase mitochondrial superoxide levels”.

With `CC(N)Cc1ccc(Cl)cc1` (stereo not shown) [4-chloroamphetamine], in data set [7], the mitochondrial superoxide levels result is “increase mitochondrial superoxide levels”.

`CCCC(C(=O)c1ccc2c(c1)OCO2)N1CCCC1` (stereo not shown) [MDPV]: the superoxide levels entry in data set [6] is given as “increase in superoxide levels”. The “concentration that increased O2•− levels” value in data set [1] is 2 mM.

Take `CC(N)Cc1ccccc1` (stereo not drawn) [amphetamine, α-methylphenylethylamine]: the mitochondrial superoxide levels entry in data set [7] was “increase mitochondrial superoxide levels”.

As to `CNC(C)C(=O)c1ccc2c(c1)OCO2` (stereo not shown) [methylone], the superoxide levels result in data set [6] was “increase in superoxide levels”.

In the case of `COc1ccc(OC)c(CCN)c1` [2C-H, 2,5-dimethoxyphenethylamine], the “Relative Population Doubling (RPD)” value is recorded as 97.5% ± 0.9 in data set [2] (6.25 µM); 81.1% ± 1.8 in data set [2] (12.5 µM); 85.0% ± 2.4 in data set [2] (25 µM); 74.0% ± 1.8 in data set [2] (35 µM); 34.1% ± 1.2 in data set [2] (50 µM); 13.0% ± 1.5 in data set [2] (75 µM). Moreover, in data set [2], the “concentrations that caused an RPD value well above 55 ± 5% (OECD threshold)” value was “up to 35 µM”. Besides, in data set [3] (35 µM), the “MNi frequency fold increase” value is “statistically significant increase”. Moreover, the “concentration up to which no cytotoxicity and cytostasis was induced” value in data set [4] was “up to 35 µM”. For the same compound, the apoptosis fold increase entry in data set [5] (setting [10]) is “never reached a doubling”.

Take `c1ccc2c(c1)cc1ccc3cccc4ccc2c1c34` [benzo [a] pyrene]: in data set [8], the micronuclei induction result is recorded as “failed to induce micronuclei”.

As for `COc1cc(CCN)c(OC)cc1I` [2C-I, 2,5-Dimethoxy-4-iodophenethylamine], the “Relative Population Doubling (RPD)” value in data set [2] (6.25 µM) was 90.9% ± 0.7; in data set [2] (12.5 µM) it was 89.6% ± 2.2; in data set [2] (25 µM), 72.5% ± 2.0; in data set [2] (35 µM), 63.9% ± 1.6; in data set [2] (50 µM), 54.8% ± 0.9; in data set [2] (75 µM) it was 30.8% ± 1.0. The “concentrations that caused an RPD value well above 55 ± 5% (OECD threshold)” value in data set [2] was “up to 35 µM”. In data set [3] (35 µM), the “MNi frequency fold increase” value is “statistically significant increase”. Besides, the “concentration up to which no cytotoxicity and cytostasis was induced” value in data set [4] is “up to 35 µM”. Also, the apoptosis fold increase entry in data set [5] (setting [10]) is “never reached a doubling”.
